Source: article PMC11768629, “Potential Interaction of Pinocembrin with Drug Transporters and Hepatic Drug-Metabolizing Enzymes” (Pharmaceuticals, 2025)

What was measured:
hOAT3 [1] = biological target: T1, hOAT3 (Homo sapiens, UniProt Q8TCC7); experiment: Pinocembrin treatment followed by 3H-estrone sulfate accumulation in hOAT3-MDCK cells; assay type: cell-based; conditions: 1, 10 and 50 μM for 24 h, concentration-dependent, compared with vehicle
T1 construct: host or cells: MDCK
T1 sequence (Q8TCC7 1-542): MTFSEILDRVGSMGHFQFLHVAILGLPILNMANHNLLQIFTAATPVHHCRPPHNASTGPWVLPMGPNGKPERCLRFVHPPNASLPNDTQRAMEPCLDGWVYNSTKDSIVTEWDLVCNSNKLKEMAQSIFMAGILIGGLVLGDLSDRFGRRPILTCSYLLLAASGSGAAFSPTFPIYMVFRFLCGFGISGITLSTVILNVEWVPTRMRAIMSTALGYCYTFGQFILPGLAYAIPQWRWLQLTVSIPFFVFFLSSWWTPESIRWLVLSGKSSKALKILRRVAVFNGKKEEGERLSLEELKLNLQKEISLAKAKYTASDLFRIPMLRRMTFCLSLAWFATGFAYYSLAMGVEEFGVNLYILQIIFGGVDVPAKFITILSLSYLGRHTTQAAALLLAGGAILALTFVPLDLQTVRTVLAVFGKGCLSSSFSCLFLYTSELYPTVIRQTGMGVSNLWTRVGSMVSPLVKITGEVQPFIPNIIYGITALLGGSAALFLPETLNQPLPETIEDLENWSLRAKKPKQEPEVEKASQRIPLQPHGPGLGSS
Procedure: (§1) The hOAT1-MDCK cells and hOAT3-MDCK cells were treated with 1, 10, and 50 μM pinocembrin for 24 h, followed by a measurement of ^3H-PAH and ^3H-estrone sulfate cellular accumulation. […] The inhibitory effect of pinocembrin occurred in a concentration-dependent manner.
A cell monolayer comprising hOAT1-MDCK, hOAT3-MDCK, hOCT1-CHO-K1, hOCT2-CHO-K1, hMATE1-CHO-K1, hMATE2-CHO-K1, and mock cells were utilized for the uptake experiments. The cells were washed three times with a buffer containing (in mM) 140 NaCl, 5 KCl, 0.4 MgSO4, 0.5 MgCl2, 1 CaCl2, 0.3 Na2HPO4, 0.4 KH2PO4, 6 D-glucose, and 4 NaHCO3 at pH 7.4 and incubated at 37 °C for 15 min. After incubation, the hOAT1-MDCK and hOAT3-MDCK cells were incubated for 10 min with ^3H-PAH and ^3H-estrone sulfate, a substrate of hOAT1 and hOAT3, respectively. The hOCT1-CHO-K1 and hOCT2-CHO-K1 cells were incubated with ^3H-MPP^+, a substrate of OCT1 and OCT2, for five minutes. The functions of MATE1 and MATE2 were determined by incubating the hMATE1-CHO-K1 and hMATE2-CHO-K1 cells with a buffer containing ^3H-MPP^+, a substrate of MATE1 and MATE2, at pH 8.5 for five minutes. The cells were washed three times with an ice-cold buffer to stop the transport function. […] The samples were collected and transferred to vials containing a liquid scintillation cocktail to measure radioactivity by a β-counter (Packard BioScience, Wellesley, MA, USA). […]

hOAT1-MDCK cells = experiment: Cell viability assay (MTT) in hOAT1-MDCK cells; assay type: cell-based, canine
Procedure: as §1
We determined whether the inhibitory effect of pinocembrin on hOAT1 and hOAT3. We studied whether pinocembrin could reduce the renal toxicity of tenofovir, a substrate of hOAT1 and hOAT3 known for inducing renal tubular dysfunction.
The confluent cells in 96-well plates were treated with pinocembrin for 48 h at 37 °C. After that, the cells were incubated with 0.5 mg/mL MTT solution for four hours. The MTT solution was removed, and DMSO (100 µL) was added to dissolve the crystal formazan. The formazan content was detected at a wavelength of 570 nm using a microplate reader. Cell viability was reported as a percentage of the vehicle-treated cells.

BCRP = biological target: T2, BCRP (Homo sapiens, UniProt Q9UNQ0); experiment: BCRP-mediated 3H-estrone sulfate transepithelial transport in Caco-2 cell monolayers; assay type: cell-based; conditions: pinocembrin, compared with vehicle control
T2 construct: Caco-2 cell monolayers, which express both P-gp and BCRP; host or cells: Caco-2
Procedure: The interactions of pinocembrin with P-gp and BCRP were determined by the measurement of P-gp-mediated ^3H-digoxin transport and BCRP-mediated ^3H-estrone sulfate transport in Caco-2 cell monolayers, which express both P-gp and BCRP [20].
P-gp- and BCRP-mediated transport were measured by the transepithelial transport of their substrates (^3H-digoxin for P-gp and ^3H-estrone sulfate for BCRP) in Caco-2 cell monolayers. […] Caco-2 cells were cultured on membrane inserts (Corning Inc., Corning, NY, USA) for 21 days. Cell monolayers showing transepithelial electrical resistance values > 600 Ω.cm^2 were included in the experiment. […] The basolateral side was replaced with a transport buffer. The sample from the basolateral side was transferred to vials containing a liquid scintillation cocktail to measure radioactivity by a β-counter (Packard BioScience, Wellesley, MA, USA).

hOCT2 = biological target: T3, hOCT2 (Homo sapiens, UniProt O15244); experiment: Cis-inhibition assay, 3H-MPP+ uptake in hOCT2-CHO-K1 cells; assay type: cell-based; conditions: pinocembrin
T3 construct: host or cells: CHO-K1
Procedure: Next, the effects of pinocembrin on the transport function of renal drug transporters, including hOAT1, hOAT3, hOCT1, hOCT2, hMATE1, and hMATE2, were determined.
A cell monolayer comprising hOAT1-MDCK, hOAT3-MDCK, hOCT1-CHO-K1, hOCT2-CHO-K1, hMATE1-CHO-K1, hMATE2-CHO-K1, and mock cells were utilized for the uptake experiments. The cells were washed three times with a buffer containing (in mM) 140 NaCl, 5 KCl, 0.4 MgSO4, 0.5 MgCl2, 1 CaCl2, 0.3 Na2HPO4, 0.4 KH2PO4, 6 D-glucose, and 4 NaHCO3 at pH 7.4 and incubated at 37 °C for 15 min. After incubation, the hOAT1-MDCK and hOAT3-MDCK cells were incubated for 10 min with ^3H-PAH and ^3H-estrone sulfate, a substrate of hOAT1 and hOAT3, respectively. The hOCT1-CHO-K1 and hOCT2-CHO-K1 cells were incubated with ^3H-MPP^+, a substrate of OCT1 and OCT2, for five minutes. The functions of MATE1 and MATE2 were determined by incubating the hMATE1-CHO-K1 and hMATE2-CHO-K1 cells with a buffer containing ^3H-MPP^+, a substrate of MATE1 and MATE2, at pH 8.5 for five minutes. The cells were washed three times with an ice-cold buffer to stop the transport function. The cells were lyzed with 0.4 N NaOH for at least four hours. The samples were collected and transferred to vials containing a liquid scintillation cocktail to measure radioactivity by a β-counter (Packard BioScience, Wellesley, MA, USA). […]

hOAT3 [2] = biological target: T1, hOAT3; experiment: hOAT3-mediated 6-CF uptake in hOAT3-MDCK cells (inhibitory potency and kinetics); assay type: cell-based
Procedure: To determine the inhibitory potency of pinocembrin on the hOAT1 and hOAT3 function, the IC50 of pinocembrin on the hOAT1- and hOAT3-mediated uptake of 6-carboxyfluorescein (6-CF), a fluorescent substrate of hOAT1 and hOAT3, was determined. […] Next, the inhibitory mechanism of pinocembrin was determined using a kinetic study.
The hOAT1-MDCK and hOAT3-MDCK cell monolayers were incubated at 37 °C with an uptake buffer containing 6-CF (10 µM), a fluorescent substrate of hOAT1 and hOAT3 [12], and pinocembrin (0–50 µM) for 10 min. Uptake was terminated by removing the uptake solution and washing four times with a cold buffer. The cell monolayers were lysed with 0.4 N NaOH for 30 min. The samples were transferred to 96-black well plates to measure the fluorescence intensity using a fluorescent plate reader (EnVision XCite 2105 Multimode Plate Reader, Packard BioScience, Wellesley, MA, USA) at excitation and emission wavelengths of 490 and 510, respectively. The IC50 of pinocembrin on hOAT1- and hOAT3-mediated 6-CF uptake was calculated in GraphPad Prism using sigmoidal concentration–response analysis using the equation Y = 100/(IC50/X)^HillSlope (X is the concentration, while Y is the normalized response). In addition, the estimated inhibitory constant (Ki) was calculated using the Cheng–Prusoff equation.
The hOAT1-MDCK and hOAT3-MDCK cell monolayers were incubated with 6-CF at increasing concentrations (0 to 100 µM) and in the absence or presence of 5 µM pinocembrin for 10 min. The kinetic parameters of 6-CF transport by hOAT1 and hOAT3 in the presence of pinocembrin were determined using nonlinear regression analysis to fit the Michaelis–Menten kinetic equation: V=Vmax[S]/Km+[S] where V is the rate of 6-CF transport, Vmax is the maximum rate of 6-CF transport, Km is the 6-CF concentration that results in half the maximum transport (Michaelis–Menten constant), and [S] is the concentration of 6-CF in the transport reaction.

T2 sequence (Q9UNQ0 whole entry): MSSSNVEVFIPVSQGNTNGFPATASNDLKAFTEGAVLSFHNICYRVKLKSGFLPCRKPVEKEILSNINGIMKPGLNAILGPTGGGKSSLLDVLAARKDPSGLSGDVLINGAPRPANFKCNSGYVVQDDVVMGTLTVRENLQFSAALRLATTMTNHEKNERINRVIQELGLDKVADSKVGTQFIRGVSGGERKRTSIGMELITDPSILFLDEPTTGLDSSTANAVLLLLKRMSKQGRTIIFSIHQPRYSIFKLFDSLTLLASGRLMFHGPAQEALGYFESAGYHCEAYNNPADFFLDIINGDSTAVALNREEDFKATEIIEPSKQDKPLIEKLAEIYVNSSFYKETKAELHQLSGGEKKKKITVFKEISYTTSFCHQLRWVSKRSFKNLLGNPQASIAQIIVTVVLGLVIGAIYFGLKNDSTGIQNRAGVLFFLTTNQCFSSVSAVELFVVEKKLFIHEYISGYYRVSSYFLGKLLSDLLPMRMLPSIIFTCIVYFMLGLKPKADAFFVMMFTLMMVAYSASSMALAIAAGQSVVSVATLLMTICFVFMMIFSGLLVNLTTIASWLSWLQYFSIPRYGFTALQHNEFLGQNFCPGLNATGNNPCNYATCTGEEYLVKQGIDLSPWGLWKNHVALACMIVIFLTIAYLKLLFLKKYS
T3 sequence (O15244 whole entry): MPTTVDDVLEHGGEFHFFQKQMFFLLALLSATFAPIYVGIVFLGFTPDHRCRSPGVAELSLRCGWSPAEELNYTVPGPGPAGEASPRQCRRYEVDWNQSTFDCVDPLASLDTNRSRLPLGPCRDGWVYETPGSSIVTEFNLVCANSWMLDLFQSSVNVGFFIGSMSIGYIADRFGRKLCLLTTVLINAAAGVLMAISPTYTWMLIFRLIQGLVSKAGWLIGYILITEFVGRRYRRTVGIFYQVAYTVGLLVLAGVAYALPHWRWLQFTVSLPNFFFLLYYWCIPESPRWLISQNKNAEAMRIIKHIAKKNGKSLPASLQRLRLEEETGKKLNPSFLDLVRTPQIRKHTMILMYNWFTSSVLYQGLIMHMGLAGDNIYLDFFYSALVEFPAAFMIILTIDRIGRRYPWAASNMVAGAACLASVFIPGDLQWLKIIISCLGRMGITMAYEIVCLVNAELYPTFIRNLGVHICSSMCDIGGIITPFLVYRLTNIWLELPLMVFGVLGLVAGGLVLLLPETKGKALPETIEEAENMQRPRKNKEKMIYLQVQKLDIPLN

## O=C1C[C@@H](c2ccccc2)Oc2cc(O)cc(O)c21 [pinocembrin]
hOAT3 [1]
  3H-estrone sulfate accumulation after pinocembrin treatment: significantly decreased
hOAT1-MDCK cells; pinocembrin 1, 10 and 50 μM, compared to vehicle-treated cells
  cell viability: did not affect cell viability
hOAT1-MDCK cells; tenofovir plus pinocembrin, 48 h, compared with tenofovir-treated cells alone
  cell viability on co-treatment with tenofovir: considerably increased cell viability
BCRP
  transport of 3H-estrone sulfate from the apical to basolateral side: did not affect
hOCT2
  hOCT2-mediated uptake of 3H-MPP+: did not alter
hOAT3 [2]; 5 μM pinocembrin, 6-CF up to 100 μM, hOAT3-MDCK cells
  Vmax of hOAT3-mediated 6-CF uptake, With Pinocembrin: 11.32 ± 2.33 nmol/min/cm^2
hOAT3 [2]; hOAT3-MDCK cells, 6-CF 10 µM, mean ± S.D., three experiments
  IC50: 2380 ± 980 nM
hOAT3 [2]; hOAT3-MDCK cells, estimated with the Cheng–Prusoff equation
  Ki: 1300 ± 240 nM
hOAT3 [2]; kinetic study, 5 μM pinocembrin: Km increased, Vmax unchanged
  inhibitory mechanism on hOAT3 transport function: competitively
